Data on three compounds can be found in paper PMC11369877 (Therapeutic Advances in Medical Oncology, 2024).

Structures are written as SMILES.

The conditions of data set [1]: human, in vivo.
The subject of a further data set is Asian patients. The note with it: palbociclib plus letrozole, PALOMA-4 trial; cited from earlier work.

For the compound `N#Cc1ccc(C(c2ccc(C#N)cc2)n2cncn2)cc1` [letrozole], the “geometric mean Rac,AUC” value in data set [1] is listed as 6.25–6.41.

In the case of `CC(C)(C#N)c1cc(Cn2cncn2)cc(C(C)(C)C#N)c1` [anastrozole], in data set [1], the “geometric mean Rac,AUC” value is 3.66–4.15.

In the case of `CC(=O)c1c(C)c2cnc(Nc3ccc(N4CCNCC4)cn3)nc2n(C2CCCC2)c1=O` [palbociclib], in the data set on Asian patients, the “neutropenia, grade 3” value is given as 72% and the “neutropenia, grade 4” value was 12.5%.
